Target: T1, human FXR (NR1H4) (Homo sapiens, UniProt Q96RI1)
T1 construct: host or cells: CHO (Chinese hamster ovary) reporter cells
T1 sequence (Q96RI1 1-486): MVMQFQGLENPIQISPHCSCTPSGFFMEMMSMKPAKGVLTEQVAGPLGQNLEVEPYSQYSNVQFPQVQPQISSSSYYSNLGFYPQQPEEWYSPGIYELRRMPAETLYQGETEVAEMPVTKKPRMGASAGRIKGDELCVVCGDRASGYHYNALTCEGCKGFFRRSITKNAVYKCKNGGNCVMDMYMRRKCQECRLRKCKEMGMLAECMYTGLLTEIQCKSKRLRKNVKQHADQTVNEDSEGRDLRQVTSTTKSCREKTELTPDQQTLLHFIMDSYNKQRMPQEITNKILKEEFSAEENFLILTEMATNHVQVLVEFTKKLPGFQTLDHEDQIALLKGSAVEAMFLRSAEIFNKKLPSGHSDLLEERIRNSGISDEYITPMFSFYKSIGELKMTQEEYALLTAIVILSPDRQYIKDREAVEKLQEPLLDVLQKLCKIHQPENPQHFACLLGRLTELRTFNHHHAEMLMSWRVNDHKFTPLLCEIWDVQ
Test: Human FXR (NR1H4) Assay (Gal4 promoter driven luciferase reporter, Indigo Bioscience kit IB00601); as to Efficacy (%): normalized to CDCA set as 100%
Format: cell-based
Details: for EC50: CHO reporter cells expressing human NR1H4, luciferase, 22 hours incubation, potency ranges; for Emax: read-out: Efficacy (%)
Description: Human FXR (NR1H4) Assay Determination of a ligand mediated Gal4 promoter driven transactivation to quantify ligand binding mediated activation of FXR. FXR Reporter Assay kit purchased from Indigo Bioscience (Catalogue number: IB00601) to determine the potency and efficacy of compound developed by Enanta that can induce FXR activation. The principle application of this reporter assay system is to quantify functional activity of human FXR. The assay utilizes non-human mammalian cells, CHO (Chinese hamster ovary) cells engineered to express human NR1H4 protein (referred to as FXR). Reporter cells also incorporate the cDNA encoding beetle luciferase which catalyzes the substrates and yields photon emission. Luminescence intensity of the reaction is quantified using a plate-reading luminometer, Envision. Reporter Cells include the luciferase reporter gene functionally linked to an FXR responsive promoter. Thus, quantifying changes in luciferase expression in the treated reporter cells provides a sensitive surrogate measure of the changes in FXR activity. […] The assay is according to the manufacturer's instructions. […] Retrieve Reporter Cells from −80° C. storage. Perform a rapid thaw of the frozen cells by transferring a 10 ml volume of 37° C. cell recovery medium into the tube of frozen cells. Recap the tube of Reporter Cells and immediately place it in a 37° C. water bath for 5-10 minutes. Retrieve the tube of Reporter Cell Suspension from the water bath. Sanitize the outside surface of the tube with a 70% alcohol swab, and then transfer it into the cell culture hood. Dispense 90 μl of cell suspension into each well of the 96-well Assay Plate. Transfer the plate into 37° C. incubator, allowing the cells adherent to the bottom of the well. Dilute compounds in Dilution Plate (DP), and administrate to cells at Assay Plate (AP). DMSO content of the samples was kept at 0.2%. Cells were incubated for additional 22 hours before luciferase activities were measured. Thirty minutes before intending to quantify FXR activity, remove Detection Substrate and Detection Buffer from the refrigerator and place them in a low-light area so that they may equilibrate to room temperature. Remove the plate's lid and discard all media contents by ejecting it into an appropriate waste container. Gently tap the inverted plate onto a clean absorbent paper towel to remove residual droplets. Cells will remain tightly adhered to well bottoms. Add 100 μl of luciferase detection reagent to each well of the assay plate. Allow the assay plate to rest at room temperature for at least 5 minutes following the addition of LDR. Set the instrument (Envision) to perform a single 5 second “plate shake” prior to reading the first assay well. Read time may be 0.5 second (500 mSec) per well.

EC50 [µM] | Emax [%] | Structure (SMILES)
0.2 to 1 | 33.5 | CC(C)Oc1cc(C(=O)NS(=O)(=O)C2CC2)cc2sc(O[C@@H]3CO[C@H]4[C@@H]3OC[C@@H]4OCc3c(-c4c(Cl)cccc4Cl)noc3C3CC3)nc12 [Example 3, 2-(((3R,3aR,6S,6aR)-6-((5-cyclopropyl-3-(2,6-dichlorophenyl)isoxazol-4-yl)methoxy)hexahydrofuro[3,2-b]furan-3-yl)oxy)-N-(cyclopropylsulfonyl)-4-isopropoxybenzo[d]thiazole-6-carboxamide]
0.2 to 1 | 40 | O=C(O)c1ccc2nc(O[C@@H]3CO[C@H]4[C@@H]3OC[C@@H]4OCc3c(-c4c(Cl)cccc4Cl)noc3C3CC3)sc2c1 [Example 4, 2-(((3R,3aR,6S,6aR)-6-((5-cyclopropyl-3-(2,6-dichlorophenyl)isoxazol-4-yl)methoxy)hexahydrofuro[3,2-b]furan-3-yl)oxy)benzo[d]thiazole-6-carboxylic acid]
0.03 to 0.2 | 55 | O=C(O)c1cc(F)c2nc(O[C@@H]3CO[C@H]4[C@@H]3OC[C@H]4OCc3c(-c4c(Cl)cccc4Cl)noc3C3CC3)sc2c1 [Example 5, 2-(((3R,3aR,6R,6aR)-6-((5-cyclopropyl-3-(2,6-dichlorophenyl)isoxazol-4-yl)methoxy)hexahydrofuro[3,2-b]furan-3-yl)oxy)-4-fluorobenzo[d]thiazole-6-carboxylic acid]
0.03 to 0.2 | 56 | O=C(O)c1cc(F)c2nc(O[C@@H]3CO[C@H]4[C@@H]3OC[C@H]4OCc3c(-c4ccccc4OC(F)(F)F)noc3C3CC3)sc2c1 [Example 6]
0.2 to 1 | 20 | CC1(S(=O)(=O)NC(=O)c2ccc3nc(O[C@@H]4CO[C@H]5[C@@H]4OC[C@H]5OCc4c(-c5c(Cl)cccc5Cl)noc4C4CC4)sc3c2)CC1 [Example 8, 2-(((3R,3aR,6R,6aR)-6-((5-cyclopropyl-3-(2,6-dichlorophenyl)isoxazol-4-yl)methoxy)hexa hydrofuro[3,2-b]furan-3-yl)oxy)-N-((1-methylcyclopropyl)sulfonyl)benzo-[d]thiazole-6-carboxamide]
0.2 to 1 | 5.5 | O=C(NS(=O)(=O)C1CC1)c1ccc2nc(O[C@@H]3CO[C@H]4[C@@H]3OC[C@H]4OCc3c(-c4c(Cl)cccc4Cl)noc3C3CC3)sc2c1 [Example 9]
< 0.03 | 103 | CC(C)Oc1cc(C(=O)NS(=O)(=O)N2CCCC2)cc2sc(O[C@@H]3CO[C@H]4[C@@H]3OC[C@H]4OCc3c(-c4c(Cl)cccc4Cl)noc3C3CC3)nc12 [Example 10]
0.03 to 0.2 | 57 | CC(C)Oc1cc(C(=O)NS(=O)(=O)C2CC2)cc2sc(O[C@@H]3CO[C@H]4[C@@H]3OC[C@H]4OCc3c(-c4c(Cl)cccc4Cl)noc3C3CC3)nc12 [Example 11]
0.03 to 0.2 | 70 | CC(C)Oc1cc(C(=O)NS(=O)(=O)C2(C)CC2)cc2sc(O[C@@H]3CO[C@H]4[C@@H]3OC[C@H]4OCc3c(-c4c(Cl)cccc4Cl)noc3C3CC3)nc12 [Example 12]
< 0.03 | 96.5 | CC(C)Oc1cc(C(=O)NS(=O)(=O)N2CCCCC2)cc2sc(O[C@@H]3CO[C@H]4[C@@H]3OC[C@H]4OCc3c(-c4c(Cl)cccc4Cl)noc3C3CC3)nc12 [Example 13]
0.03 to 0.2 | 67.5 | O=C(O)c1ccc2nc(O[C@@H]3CO[C@H]4[C@@H]3OC[C@H]4OCc3c(-c4c(Cl)cccc4Cl)noc3C3CC3)sc2c1 [Example 14]
0.03 to 0.2 | 85 | O=C(O)c1ccc2nc(O[C@@H]3CO[C@H]4[C@@H]3OC[C@H]4OCc3c(-c4c(Cl)cccc4Cl)noc3C3CC3)ccc2c1 [Example 16]
> 1 | 9 | CC(C)Oc1cc(C(=O)O)cc2sc([C@@]3(O)CO[C@@H]4[C@H](OCc5c(-c6c(Cl)cccc6Cl)noc5C5CC5)CO[C@@H]43)nc12 [Example 17]
0.2 to 1 | 45 | CC(C)Oc1cc(C(=O)O)cc2sc([C@]3(F)CO[C@@H]4[C@H](OCc5c(-c6c(Cl)cccc6Cl)noc5C5CC5)CO[C@@H]43)nc12 [Example 18]
0.2 to 1 | 82.3 | CC(C)Oc1cc(C(=O)O)cc2sc(N[C@@H]3CO[C@H]4[C@@H]3OC[C@H]4OCc3c(-c4c(Cl)cccc4Cl)noc3C3CC3)nc12 [Example 19]
0.2 to 1 | 44 | CC(C)Oc1cc(C(=O)O)cc2sc(N3CCN4C[C@@H](OCc5c(-c6c(Cl)cccc6Cl)noc5C5CC5)C[C@@H]4C3)nc12 [Example 20, 2-((7S,8aR)-7-((5-cyclopropyl-3-(2,6-dichlorophenyl)isoxazol-4-yl)methoxy)hexahydropyrrolo[1,2-a]pyrazin-2(1H)-yl)-4-isopropoxybenzo[d]thiazole-6-carboxylic acid]
0.03 to 0.2 | 72 | CC(C)Oc1cc(C(=O)O)cc2sc(N3CCN4C[C@H](OCc5c(-c6c(Cl)cccc6Cl)noc5C5CC5)C[C@H]4C3)nc12 [Example 21]
0.03 to 0.2 | 82 | CC(C)Oc1cc(C(=O)O)cc2sc(N3CCN4C[C@H](OCc5c(-c6c(Cl)cccc6Cl)noc5C5CC5)C[C@@H]4C3)nc12 [Example 22, 2-((7R,8aR)-7-((5-cyclopropyl-3-(2,6-dichlorophenyl)isoxazol-4-yl)methoxy)hexahydropyrrolo[1,2-a]pyrazin-2(1H)-yl)-4-isopropoxybenzo[d]thiazole-6-carboxylic acid]
< 0.03 | 103 | CC(C)Oc1cc(C(=O)O)cc2sc(O[C@@H]3CO[C@H]4[C@@H]3OC[C@H]4OCc3c(-c4ccccc4OC(F)(F)F)noc3C3CC3)nc12 [Example 23]
0.03 to 0.2 | 78 | CC(C)Oc1cc(C(=O)NS(=O)(=O)C2(C)CC2)cc2sc(O[C@@H]3CO[C@H]4[C@@H]3OC[C@H]4OCc3c(-c4ccccc4OC(F)(F)F)noc3C3CC3)nc12 [Example 24]
0.03 to 0.2 | 66 | CC(C)Oc1cc(C(=O)NS(=O)(=O)C2CC2)cc2sc(O[C@@H]3CO[C@H]4[C@@H]3OC[C@H]4OCc3c(-c4ccccc4OC(F)(F)F)noc3C3CC3)nc12 [Example 25]
0.2 to 1 | 7 | CC(C)Oc1cc(C(=O)O)cc2sc(N3C[C@H]4[C@@H](OCc5c(-c6c(Cl)cccc6Cl)noc5C5CC5)CO[C@H]4C3)nc12 [Example 26]
0.2 to 1 | 57 | CC(C)Oc1cc(C(=O)O)cc2sc(N3C[C@H]4C[C@@H](NCc5c(-c6c(Cl)cccc6Cl)noc5C5CC5)C[C@H]4C3)nc12 [Example 28]
> 1 | 21 | CC(C)Oc1cc(C(=O)O)cc2sc(N3CCN4C(=O)[C@@H](OCc5c(-c6c(Cl)cccc6Cl)noc5C5CC5)C[C@@H]4C3)nc12 [Example 29]
0.03 to 0.2 | 70 | CC(C)Oc1cc(C(=O)O)cc2sc(N3CCN4C(=O)[C@H](OCc5c(-c6c(Cl)cccc6Cl)noc5C5CC5)C[C@H]4C3)nc12 [Example 30]
0.03 to 0.2 | 110 | CC(C)Oc1cc(C(=O)O)cc2sc(N3CCN4C(=O)[C@@H](OCc5c(-c6c(Cl)cccc6Cl)noc5C5CC5)C[C@H]4C3)nc12 [Example 31]
